Reference: patent publication US11224582B2, “Amino acid formulations for pancreatic viability” (Almeda Labs LLC, priority 2017, dated 2022)
“Also recorded” adds a separate entry of the source.

Key:
[1] = Dissolution of test articles in RPMI working solutions; format: physicochemical; conditions: 1 g/1 L in RPMI, after 24 hours at 37° C.
Experimental: The working solutions contained 1 g/1 L concentration of Amino Acid Formulation #1 or cysteine alone prepared in RPMI. […] The working medium was kept at 37° C. in incubator with islets.

[2] = system: human beta-cell line (INS-1 832/13); experiment: Viability assay (PrestoBlue) of beta-cell line with single amino acids, double crosses and blends, Example 4; conditions: for effect of single amino acid on cell viability: 5-hour exposure in PBS; for effect on cell viability in single / double crosses: each amino acid at 1 mg/mL; for effect on cell viability at the highest doses / higher concentrations: single amino acids
Experimental: The human beta-cell line (INS-1 832/13) was expanded and maintained in RPMI-1640 growth media during expansion. Cells were grown and sustained in T75 cell culture flasks in an incubator at 37° C. and 5% CO2. Cells were passaged every 4th day via trypsinization. All cell media changes and passage work was done under a biosafety hood to ensure sterility of the cultures. Readings were obtained from the EnSpire Multimode Plate Reader (Perkin Elmer) with excitation of 560 nm and emission of 590 nm. To avoid plate edge effects the outer wells of each plate were used as blanks.
The INS-1 832/13 cell line, a derivation of the INS-1 cell line, was cultured in a growth medium consisting of RPMI-1640, along with 1 M HEPES buffer solution, 50×INS supplement (glutamine, Na-pyruvate, and B-mercaptoethanol), Antibiotic-Antimycotic (Gibco by LifeTechnologies), and Fetal Bovine Serum (HyClone). Cells were grown and sustained in a T75 cell culture flask. The cells were placed in a humidified incubator at 37° C. and 5% CO2. Due to the rapid growth of these cells, media was changed on every second day and passaged on every fourth day via trypsinization. When cells were confluent, they were exposed to amino acids as described below.
Pilot studies were undertaken with 6 single amino acids to determine the optimal conditions for cell testing, and the optimal time for exposure to the amino acids. […] Thus, a second trial was undertaken removing the media and placing cells in phosphate buffered saline at the time of the amino acid addition. […] Thus, the optimal conditions were determined to be a 5-hour exposure to the amino acids in PBS.
For the full study, cells plated in 384-well plates were exposed to individual amino acids at 10 full-log doses for 4 hours at 37° C. and 5% CO2. PrestoBlue (10%) was added to each well using the Hamilton Star Automated Fluid Handling System, and 1 hour later, for a total of 5 hours of exposure to the amino acids.
The plates were loaded into the EnSpire plate reader with excitation of 560 nm and emission of 590 nm excitation wavelengths.
Amino acids were added to a minimal buffer in full log concentrations starting at 1E−08 through 10 mg/mL. […] In the graph, the data have been normalized to cell viability in minimal buffer with no amino acids (100%).
Thus, a concentration of 1 mg/mL of a single amino acid is actually a 5 mg/mL of the full blend, because there are 5 different amino acids in each blend mixed in equal amounts.

[3] = system: rat islets; experiment: Viability assay of rat islets (Yo-Pro / propidium iodide staining); format: cell-based; conditions: for Apoptotic Cells (%) / Live Cells (%) / Necrotic Cells (%): 1 g/L in RPMI, 11.6 mM glucose
Experimental: During the long-term (11 day) exposure, the islets were administered Amino Acid Formulation #1 or cysteine (at the same concentration) or culture media with no added amino acids.
Isolated rat islets were cultured in 100 cm^2 cell culture plates (untreated) in 20 ml of Roswell Park Memorial Institute (RPMI) media. […] Islets were removed from the dish and placed in 50 ml tubes. Islets were allowed time to settle to the bottom of the tube. The excess media was removed, and the islets were moved to microcentrifuge tubes, and DPBS solution was added to each tube. Cells were washed and fresh DPBS added.
Islets had media changed every 2 days with continuous exposure to Amino Acid Formulation #1, Cysteine alone, or media alone. Amino Acid Formulation #1 was prepared in the lab using amino acid capsules: […]
The working solutions contained 1 g/1 L concentration of Amino Acid Formulation #1 or cysteine alone prepared in RPMI.
25-50 islets were removed from the dishes and placed in 50 ml tubes. Islets were allowed time to settle to the bottom of the tube. The excess media was removed, and the islets were moved to microcentrifuge tubes, and DPBS solution was added to each tube. Cells were washed and fresh DPBS added. Propidium iodide and yo-pro were added to the tubes at a ratio of 1 μl reagent to 1 ml cells in DPBS.
Individual wells of 96-well plates were manually loaded with 10-15 islets each and checked visually under a microscope for consistency between wells. 30 minutes later, the plates were loaded into the BioTeck plate reader with readings for Yo-Pro and Propidium iodide with additional verification of islet tissue using dithizone staining.
Results were saved as images for later cellular analysis.
All islets identified in each condition were scored for the percent area of apoptotic and necrotic cells. The remaining percentage was calculated as live cells.

[4] = system: rat islets; experiment: Islet survival (number of islets over time in culture); format: cell-based
Description: The objective of the experiment was to test the effect of long-term exposure of rat islets to Amino Acid Formulation #1 and compare those results to the currently-marketed amino acid, cysteine. A group without added amino acids was used as a control group. The comparison was based on the number of dead cells within islets over time, a count of the number of islets surviving over time, and the functional test of cellular metabolism after long-term exposure.
Rat islets were isolated from the pancreata of female animals under approved protocol and SOPs. […] The imaging capabilities of the Cytation plate reader was utilized for survival values.
All groups began with the same number of total islets per group.

[5] = system: rat islets; experiment: Dithizone staining / light microscopy of rat islets; format: cell-based; conditions: day 1
Description: Islets were exposed to a single dose of Amino Acid Formulation #1 or cysteine for 11 days. FIG. 1 illustrates images of islets from each condition on day 1, stained with dithizone, which identifies islet cells via dark red color.
In the control media, the same was found.

**Q.** Which results are given for `N[C@@H](CS)C(=O)O` [Cysteine, L-Cysteine]?
**A.** undissolved crystals in working solution [1]: still had microscopic crystals that had not gone completely into solution; effect of single amino acid on cell viability ([2]; 0.01 mg/mL and higher): positive impact on cell viability; effect on cell viability in single / double crosses [2]: most positive effect on cell health; effect on cell viability at the highest doses / higher concentrations [2]: improve viability at the higher concentrations tested; route of cell death (apoptosis / necrosis) [3]: both apoptosis and necrosis; cell death (Yo-Pro and Propidium Iodide staining) ([3]; 24 hours exposure, compared with control and Formulation #1): greater than the other 2; Apoptotic Cells (%) ([3]; Day 1): 18.2 + 21.3%; Live Cells (%) ([3]; Day 1): 58.4 ± 33.4 %; Necrotic Cells (%) ([3]; Day 1): 23.4 ± 20.4%; Apoptotic Cells (%) ([3]; Day 4): 47.1 ± 35.9%; Live Cells (%) ([3]; Day 4): 42.0 ± 39.8 %; Necrotic Cells (%) ([3]; Day 4): 10.9 + 13.4%; viability compared with the other groups ([3]; days 1, 4 and 8): significantly lower viability than the other two groups; islets found in the group ([4]; day 8): No islets could be identified; also recorded: no live islets could be found; islet survival time in culture ([4]; no islets survived past this time): ≤ 6 days; number of islets as % of the Amino Acid Formulation #1 group ([4]; within 24 hours of exposure): 78%; islets with core cell death [5]: approximately 30%

**Q.** Which results are given for `N=C(N)NCCC[C@H](N)C(=O)O` [arginine, L-Arginine]?
**A.** effect on cell viability in single / double crosses [2]: decrease in cell viability when added to any other amino acid; effect on cell viability at the highest doses / higher concentrations [2]: negative effects on cell viability at the highest doses; effect of single amino acid on cell viability ([2]; starting at 1 mg/mL): dramatic reductions in the viability

**Q.** Which “cells left in the dish that were alive” value ([2]; double cross: another 1 mg/mL of asparagine added to 1 mg/mL asparagine) does the source give for `NC(=O)C[C@H](N)C(=O)O` [asparagine, L-Asparagine] here?
**A.** The value was 18%.

**Q.** What about the “effect on cell viability in single / double crosses” value [2] of the same compound?
**A.** The value was “dramatic reduction in beta cell viability”.

**Q.** And the “effect on cell viability at the highest doses / higher concentrations” value [2]?
**A.** Its value is “negative effects on cell viability at the highest doses”.

**Q.** And the “effect of single amino acid on cell viability” value (“effect of single amino acid” for short) ([2]; starting at 1 mg/mL)?
**A.** Its value is “dramatic reductions in the viability”.

**Q.** What does the source list for `N[C@@H](Cc1c[nH]cn1)C(=O)O` [histidine, L-Histidine]?
**A.** effect on cell viability in single / double crosses [2]: very little effect on cell viability except when paired with asparagine or arginine; cells killed (fraction, words) ([2]; single amino acid, high doses (from 1 mg/mL)): approximately half; effect of single amino acid on cell viability ([2]; starting at 1 mg/mL): dramatic reductions in the viability

**Q.** Which “effect of single amino acid” value ([2]; 10 mg/mL) does the source give for `N[C@@H](CO)C(=O)O` [serine, L-Serine] here?
**A.** The value was “slightly positive increases in viability”.

**Q.** For `C[C@@H](O)[C@H](N)C(=O)O` [threonine, L-Threonine], which “effect of single amino acid” value ([2]; 10 mg/mL) is on record?
**A.** Its value is “slightly positive increases in viability”.
